Measured values taken from publication PMC12677607, “Identification of a Pair of Linear or Cyclic Naturally Inspired Bifunctional Lipopeptide Antibiotics That Overcome Antimicrobial Resistance” (Advanced Science, 2025).
≈ marks a conversion by molar mass, not a printed value. Bridge positions count the residues as written; N and C are the ends. Square brackets hold non-standard residues; d marks the D form. Peptide text beside a SMILES is read from it. * marks the point of attachment. Octanoyl(3R-OH) = CCCCC[C@@H](O)CC(=O)*; Myristoyl = CCCCCCCCCCCCCC(=O)*; Orn = NCCC[C@H](N)C(=O)O; Dab = NCC[C@H](N)C(=O)O; Dap = NC[C@H](N)C(=O)O

Columns and labels:
[1] = tested on: Acinetobacter baumannii ATCC 17978; assay: microbe, parasite or virus in culture; assay type: cell-based; details: Acinetobacter baumannii, ATCC17978; Table S11; LB broth, 37 °C, 16 h, n = 2
Description: (§1) All MIC assays were performed two independent times (n = 2) in 96‐well plates using a broth micro‐dilution method. The lowest concentration of that inhibited visible microbial growth was recorded as the MIC value.
(§2) For most of bacterial strains, overnight cultures were diluted 5000‐fold in LB broth. For E. faecium and S. aureus, overnight cultures were diluted 1000‐ and 10000‐fold in LB broth, respectively. 100 µL of diluted cells was mixed with 100 µL of LB broth containing each peptide ranging from 64 to 0.125 µg mL^−1 at 2‐fold serial dilutions.

[2] = tested on: Klebsiella pneumoniae ATCC 13883; assay: microbe, parasite or virus in culture; assay type: cell-based; details: Klebsiella pneumoniae, ATCC13883, 16 h, read-out: MIC Klebsiella pneumoniae ATCC 13883
Description: as §1, §2

[3] = tested on: Klebsiella pneumoniae CRKP 5452; assay: microbe, parasite or virus in culture; assay type: cell-based; details: for MIC (μg/mL) K. pneumoniae CRKP 5452: CRKP 5452, 16 h
Description: as §1, §2

[4] = tested on: Vibrio alginolyticus XSBZ14; assay: microbe, parasite or virus in culture; assay type: cell-based; details: Vibrio alginolyticus, XSBZ14, 16 h, read-out: MIC Vibrio alginolyticus XSBZ14
Description: as §1, §2

[5] = tested on: Klebsiella pneumoniae CRKP HS11286; assay: microbe, parasite or virus in culture; assay type: cell-based; details: Klebsiella pneumoniae, CRKPHS11286, 16 h, read-out: MIC Klebsiella pneumoniae CRKP HS11286
Description: as §1, §2

[6] = tested on: Pseudomonas aeruginosa PAO1; assay: microbe, parasite or virus in culture; assay type: cell-based; details: Pseudomonas aeruginosa, PAO1; Table S11; LB broth, 37 °C, 16 h, n = 2
Description: as §1, §2

[7] = tested on: Acinetobacter baumannii 1104008; assay: microbe, parasite or virus in culture; assay type: cell-based; details: for MIC (μg/mL) A. baumannii 1104008: 1104008, 16 h
Description: as §1, §2

[8] = tested on: Salmonella typhimurium LXX; assay: microbe, parasite or virus in culture; assay type: cell-based; details: Salmonella enterica, TYPHIMURIUM, 16 h, read-out: MIC Salmonella typhimurium LXX
Description: as §1, §2

[9] = tested on: Salmonella enterica ATCC 14028; assay: microbe, parasite or virus in culture; assay type: cell-based; details: Salmonella enterica, ATCC14028, 16 h, read-out: MIC Salmonella enterica ATCC 14028
Description: as §1, §2

[10] = tested on: Klebsiella pneumoniae NCTC 5056; assay: microbe, parasite or virus in culture; assay type: cell-based; details: Klebsiella pneumoniae, NCTC5056, 16 h, read-out: MIC Klebsiella pneumoniae NCTC 5056
Description: as §1, §2

[11] = tested on: Acinetobacter baumannii P53; assay: microbe, parasite or virus in culture; assay type: cell-based; details: Acinetobacter baumannii, P53; Table S11; LB broth, 37 °C, 16 h, n = 2
Description: as §1, §2

[12] = tested on: Pseudomonas aeruginosa ATCC 9027; assay: microbe, parasite or virus in culture; assay type: cell-based; details: Pseudomonas aeruginosa, ATCC9027; Table S11; LB broth, 37 °C, 16 h, n = 2
Description: as §1, §2

[13] = tested on: Acinetobacter baumannii ATCC 19606; assay: microbe, parasite or virus in culture; assay type: cell-based; details: Acinetobacter baumannii, ATCC19606; Table S11; LB broth, 37 °C, 16 h, n = 2
Description: as §1, §2

Shigella Castellani LXX = assay: MIC assay (broth micro-dilution); assay type: cell-based; details: Shigella; Table S11; LB broth, 37 °C, 16 h, n = 2
Description: as §1, §2

[14] = tested on: Streptococcus pyogenes ATCC 19615; assay: microbe, parasite or virus in culture; assay type: cell-based; details: ATCC 19615, 16 h
Description: as §1, §2

[15] = tested on: Staphylococcus aureus USA300; assay: microbe, parasite or virus in culture; assay type: cell-based; details: USA300, 16 h
Description: as §1, §2

HeLa cells = assay: Cytotoxicity assay (CCK-8); assay type: cell-based, human; details: 48 h
Description: The cytotoxicity of each synAQU peptide was assessed using a cell counting kit‐8 (CCK‐8) assay. HeLa cells were first seeded in a 96‐well flat‐bottom microtiter plate with a density of ∼5000 cells per well and incubated in the DMEM medium supplemented with 10% FBS at 37 °C with 5% CO2 for 24 h. […] All cytotoxicity experiments were done in triplicate (n = 3) and repeated two independent times (n = 2).

[16] = tested on: Candida albicans ATCC 10231; assay: MIC assay (YPD broth); assay type: cell-based; details: ATCC 10231, 16 h
Description: as §1
For fungal strains, overnight cultures were diluted 2000‐fold in YPD broth. 100 µL of diluted cells was mixed with 100 µL of YPD broth containing each peptide ranging from […] 64 to 0.125 µg mL^−1 at 2‐fold serial dilutions.

MIC (μg/mL) S. pyogenes ATCC 19615 [14] | MIC (μg/mL) S. aureus USA300 [15] | MIC (μg/mL) K. pneumoniae CRKP 5452 [3] | MIC (μg/mL) A. baumannii 1104008 [7] | MIC (μg/mL) C. albicans ATCC 10231 [16] | Compound | MIC [1] | MIC [2] | MIC ([3]; Klebsiella pneumoniae, CRKP5452, Table S11, LB broth, 37 °C, 16 h, n = 2) | MIC [4] | MIC [5] | MIC [6] | MIC ([7]; Acinetobacter baumannii, 1104008, Table S11, LB broth, 37 °C, 16 h, n = 2) | MIC [8] | MIC [9] | MIC [10] | MIC [11] | MIC [12] | MIC [13] | MIC (Shigella Castellani LXX) | MIC (μg/mL) Hela (HeLa cells)
– | – | – | – | – | C[C@@H](O)[C@H]1C(=O)N2C(C(=O)O)=C(S[C@@H]3CN[C@H](C(=O)N(C)C)C3)[C@H](C)[C@H]12 [Meropenem, reference compound] | 0.25 µg/mL (≈ 0.652 µM) | < 0.125 µg/mL | 16 µg/mL (≈ 41.7 µM) | < 0.125 µg/mL | 8 µg/mL (≈ 20.9 µM) | 16 µg/mL (≈ 41.7 µM) | 16 µg/mL (≈ 41.7 µM) | 0.125 µg/mL (≈ 0.326 µM) | 0.125 µg/mL (≈ 0.326 µM) | 0.125 µg/mL (≈ 0.326 µM) | 32 µg/mL (≈ 83.4 µM) | 0.25 µg/mL (≈ 0.652 µM) | 0.5 µg/mL (≈ 1.3 µM) | 0.125 µg/mL (≈ 0.326 µM) | –
> 64 µg/mL | > 64 µg/mL | > 64 µg/mL | > 64 µg/mL | > 64 µg/mL | CCCCC[C@@H](O)CC(=O)N[C@@H](CN)C(=O)N[C@@H](Cc1ccccc1)C(=O)N[C@H]1CCNC(=O)[C@H](CC(=O)O)NC(=O)[C@H](C(C)C)NC(=O)[C@@H](CC(C)C)NC(=O)[C@H](CN)NC(=O)[C@@H](Cc2ccccc2)NC(=O)[C@H]([C@@H](C)O)NC1=O [synAQU3-C3] ({Octanoyl(3R-OH)}-[Dap]F[Dab]T[dF][Dap][dL]VD; lactam 3-C (inferred)) | – | – | – | – | – | – | – | – | – | – | – | – | – | – | > 64 µg/mL
> 64 µg/mL | > 64 µg/mL | > 64 µg/mL | > 64 µg/mL | > 64 µg/mL | CCCCC[C@@H](O)CC(=O)N[C@@H](CN)C(=O)N[C@@H](Cc1ccccc1)C(=O)N[C@@H](CCN)C(=O)N[C@H](C(=O)N[C@H](Cc1ccccc1)C(=O)N[C@@H](CN)C(=O)N[C@H](CC(C)C)C(=O)N[C@H](C(=O)N[C@@H](CC(=O)O)C(=O)O)C(C)C)[C@@H](C)O [synAQU3-L] ({Octanoyl(3R-OH)}-[Dap]F[Dab]T[dF][Dap][dL]VD-OH) | – | – | – | – | – | – | – | – | – | – | – | – | – | – | > 64 µg/mL
> 64 µg/mL | > 64 µg/mL | > 64 µg/mL | > 64 µg/mL | > 64 µg/mL | CCCCCCCCCCCCCC(=O)N[C@@H](Cc1ccccc1)C(=O)N[C@@H](CCCN)C(=O)N[C@@H](CCCN)C(=O)N[C@@H](C(=O)N[C@H](C(=O)N[C@@H](CC(C)C)C(=O)N[C@H](Cc1ccc(O)cc1)C(=O)N[C@@H](CCN)C(=O)NCC(=O)O)[C@@H](C)CC)C(C)C [synAQU2-L] (Myristoyl-F[Orn][Orn][dV]IL[dY][Dab]G-OH) | – | – | – | – | – | – | – | – | – | – | – | – | – | – | > 64 µg/mL
